We go through nine molecules from patent US20260042770A1, “NOVEL SULFONES AND THEIR USE AS NEUROPROTECTIVE AND/OR NEURORESTORATIVE AGENTS” (GENECODE, priority 2022, published 2026).

This assay deals with T1, GFRα1-RET (Homo sapiens, UniProt P56159).
T1 construct: expressed in transfected cells; host or cells: MG87 murine fibroblasts stably transfected with PathDetect Elk-1, GFRα1 and RET
T1 sequence (P56159 25-429 limits assumed): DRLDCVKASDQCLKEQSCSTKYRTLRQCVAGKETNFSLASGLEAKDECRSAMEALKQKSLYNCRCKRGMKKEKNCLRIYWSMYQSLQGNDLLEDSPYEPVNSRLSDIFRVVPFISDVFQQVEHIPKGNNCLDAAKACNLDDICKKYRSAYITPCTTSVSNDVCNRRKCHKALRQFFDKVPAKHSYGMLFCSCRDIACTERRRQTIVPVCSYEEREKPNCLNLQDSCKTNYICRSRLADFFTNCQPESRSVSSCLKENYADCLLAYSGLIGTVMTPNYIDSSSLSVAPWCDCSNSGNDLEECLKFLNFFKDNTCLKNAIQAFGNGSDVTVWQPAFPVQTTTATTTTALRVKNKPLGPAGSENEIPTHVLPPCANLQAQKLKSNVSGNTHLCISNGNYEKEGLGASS
The assay is described as follows: Elk1 luciferase reporter-gene assay in cells expressing GFRα1-RET. In kind it is cell-based. Particulars: agonist/activator activity of Elk1 signaling; MG87 murine fibroblast stably transfected with PathDetect Elk-1, GFRα1 and RET; 6 concentrations, duplicate, two independent runs. How it is done:
For EC50 determination, a dose-response test was performed using 6 concentrations of each tested compound. Dose-response curves were fitted using the sigmoidal dose-response (variable slope) analysis in GraphPad Prism program (Graph Pad Inc) and EC50 of agonist/activator activity was calculated. Dose-response experiments were all performed in duplicate, two times independently.
A general note: In a reporter assay the amount or activity of a reporter protein is the signal.

The EC50 is the concentration that produces a half-maximal response. `COc1ccc(S(=O)(=O)CC2CCC2)cc1N1CCN(C(=O)c2ccc(F)cc2Cl)CC1` [Cpd 012, (2-chloro-4-fluoro-phenyl)-[4-[5-(cyclobutylmethylsulfonyl)-2-methoxy-phenyl]piperazin-1-yl]methanone] came in with an EC50 of 10 to 50 µM. As for `COc1ccc(S(=O)(=O)C(C)C)cc1N1CCN(C(=O)c2ccc(F)cc2Cl)CC1` [Cpd 008, (2-chloro-4-fluoro-phenyl)-[4-(5-isopropylsulfonyl-2-methoxy-phenyl)piperazin-1-yl]methanone], the figure is 10 to 50 µM; as for `COc1ccc(S(=O)(=O)C(C)CCCc2ccccc2)cc1N1C2CCC1CN(C(=O)c1ccc(F)cc1Cl)C2` (racemic) [Cpd 024, (2-chloro-4-fluoro-phenyl)-[(1S,5R)-8-[2-methoxy-5-[(1SR)-1-methyl-4-phenyl-butyl]sulfonyl-phenyl]-3,8-diazabicyclo[3.2.1]octan-3-yl]methanone], 1 to 10 µM. In the case of `O=C(c1ccc(F)cc1Cl)N1C[C@H]2CC[C@@H](C1)N2c1cc(S(=O)(=O)C2CCN(c3ccccc3)CC2)ccc1O` [Cpd 030, (2-chloro-4-fluoro-phenyl)-[(1S,5R)-8-[2-hydroxy-5-[(1-phenyl-4-piperidyl)sulfonyl]phenyl]-3,8-diazabicyclo[3.2.1]octan-3-yl]methanone] it was below 1 µM; in that of `O=C(c1ccc(F)cc1Cl)N1C[C@H]2CC[C@@H](C1)N2c1cc(S(=O)(=O)C2CCN(CCc3ccccc3)CC2)ccc1O` [Cpd 031, (2-chloro-4-fluoro-phenyl)-[(1S,5R)-8-[2-hydroxy-5-[[1-(2-phenylethyl)-4-piperidyl]sulfonyl]phenyl]-3,8-diazabicyclo[3.2.1]octan-3-yl]methanone], 1 to 10 µM; in that of `CCC(CC)S(=O)(=O)c1ccc(OC)c(N2CCN(C(=O)c3ccc(F)cc3C(F)(F)F)CC2)c1` [Cpd 001, [4-[5-(1-ethylpropylsulfonyl)-2-methoxy-phenyl]piperazin-1-yl]-[4-fluoro-2-(trifluoromethyl)phenyl]methanone], 10 to 50 µM.

Turning to `COc1ccc(S(=O)(=O)C2COC2)cc1N1CCN(C(=O)c2ccc(F)cc2Cl)CC1` [Cpd 011, (2-chloro-4-fluoro-phenyl)-[4-[2-methoxy-5-(oxetan-3-ylsulfonyl)phenyl]piperazin-1-yl]methanone], the EC50 lay within 10 to 50 µM. As for `CCCCS(=O)(=O)c1ccc(OC)c(N2[C@@H]3CC[C@H]2CN(C(=O)c2ccc(F)cc2Cl)C3)c1` [Cpd 020, [(1S,5R)-8-(5-butylsulfonyl-2-methoxy-phenyl)-3,8-diazabicyclo[3.2.1]octan-3-yl]-(2-chloro-4-fluoro-phenyl)methanone], the figure is 1 to 10 µM; as for `COc1ccc(S(=O)(=O)C2CCCCC2)cc1N1CCN(C(=O)c2ccc(F)cc2C(F)(F)F)CC1` [Cpd 003, [4-(5-cyclohexylsulfonyl-2-methoxy-phenyl)piperazin-1-yl]-[4-fluoro-2-(trifluoromethyl)phenyl]methanone], 10 to 50 µM.
